The source of these data is patent publication US12240862B2, “Inhibitors of peptidylarginine deiminases” (Gilead Sciences, Inc., priority 2020, dated 2025).

As usually defined, the IC50 is the point on the concentration scale where inhibition reaches its midpoint.

The target in this experiment is T1, human PAD4 (Homo sapiens, UniProt Q9UM07).
T1 construct: human PAD4 (NM_012387), A2P663, was PCR amplified; His-SUMO (N, cleaved yes); made in house; host or cells: E. coli BL21(DE3)
Nature of the experiment: In vitro PAD4 BAEE biochemical assay. As to conditions: human PAD4, BAEE substrate; 5 nM PAD4, 2 mM calcium chloride, 3 mM BAEE; geometric mean of multiple experiments. In short, it runs like this: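 Tag-free recombinant hPAD4 (5 nM), 2 mM CaCl2, 3 mM BAEE, 50 mM MOPS pH 7.6, 2 mM DTT; 30 min compound preincubation, 2 h reaction, all 25 °C. EDTA quench; ammonia read via o-phthalaldehyde amine coupling, 1 h.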

T1 sequence (Q9UM07 2-663): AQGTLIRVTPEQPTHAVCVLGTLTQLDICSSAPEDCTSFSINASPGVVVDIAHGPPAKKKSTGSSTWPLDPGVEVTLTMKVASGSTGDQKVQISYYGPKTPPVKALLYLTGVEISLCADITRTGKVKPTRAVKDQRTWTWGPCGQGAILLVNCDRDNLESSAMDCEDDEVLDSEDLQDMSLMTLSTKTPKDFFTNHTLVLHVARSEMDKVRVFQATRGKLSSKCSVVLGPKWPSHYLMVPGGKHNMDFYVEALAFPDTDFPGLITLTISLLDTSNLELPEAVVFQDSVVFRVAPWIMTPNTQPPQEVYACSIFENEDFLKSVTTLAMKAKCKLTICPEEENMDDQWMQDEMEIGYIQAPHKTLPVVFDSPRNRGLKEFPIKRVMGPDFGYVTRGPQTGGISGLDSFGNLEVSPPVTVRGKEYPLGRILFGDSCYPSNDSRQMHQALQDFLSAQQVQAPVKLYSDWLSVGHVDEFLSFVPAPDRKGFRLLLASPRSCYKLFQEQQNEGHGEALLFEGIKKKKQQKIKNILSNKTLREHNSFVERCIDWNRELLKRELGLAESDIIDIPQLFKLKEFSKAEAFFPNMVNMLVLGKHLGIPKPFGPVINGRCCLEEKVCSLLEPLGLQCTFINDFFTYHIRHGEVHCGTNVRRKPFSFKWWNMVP

Turning to `COc1cc(C(=O)N2[C@H]3CC[C@@H]2[C@H](N)[C@H](OC)C3)cc2nc(-c3cc4ccc([C@@H](C)NC(=O)C56CC(F)(C5)C6)nc4n3CC3CC3)c(C)n12` [Example 183, ~{N}-[(1~{R})-1-[2-[7-[(1~{R},2~{S},3~{R}, 5~{S})-2-amino-3-methoxy-8-azabicyclo [3.2.1]octane-8-carbonyl]-5-methoxy-3-methylimidazo [1,2-a]pyridin-2-yl]-1-(cyclopropylmethyl)pyrrolo [2,3-b]pyridin-6-yl]ethyl]-3-fluorobicyclo[1.1.1]pentane-1-carboxamide], the IC50 was determined as 237 nM.
As for `COc1cc(C(=O)N(C)C)cc2nc(-c3cc4ccc([C@@H](C)N(C)C(=O)c5ccccc5)nc4n3CC3CC3)c(C)n12` [Example 184, 2-[6-[(1~{R})-1-[benzoyl (methyl)amino]ethyl]-1-(cyclopropylmethyl)pyrrolo [2,3-b]pyridin-2-yl]-5-methoxy-~{N},~{N},3-trimethylimidazo[1,2-a] pyridine-7-carboxamide], the IC50 was 17700 nM.
In the case of `COc1cc(C(=O)N2[C@H]3CC[C@@H]2[C@H](N)C3)cc2nc(-c3cc4ccc([C@@H](C)N(C)C(=O)c5ccccc5)nc4n3CC3CC3)c(C)n12` [Example 185, ~{N}-[(1~{R})-1-[2-[7-[(1~{R},2~{R},4~{S})-2-amino-7-azabicyclo[2.2.1]heptane-7-carbonyl]-5-methoxy-3-methylimidazo [1,2-a]pyridin-2-yl]-1-(cyclopropylmethyl)pyrrolo [2,3-b]pyridin-6-yl]ethyl]-~{N}-methylbenzamide] it was 139 nM; in that of `COc1cc(C(=O)N2CCC[C@@H](N)C2)cc2nc(-c3cc4ccc([C@@H](C)N(C)C(=O)c5ccccc5)nc4n3CC3CC3)c(C)n12` [Example 186, ~{N}-[(1~{R})-1-[2-[7-[(3~{R})-3-aminopiperidine-1-carbonyl]-5-methoxy-3-methylimidazo [1,2-a]pyridin-2-yl]-1-(cyclopropylmethyl)pyrrolo [2,3-b]pyridin-6-yl]ethyl]-~{N}-methylbenzamide], 274 nM.
In the case of `COc1cc(C(=O)N2CCC[C@@H](N)C2)cc2nc(-c3cc4ccc([C@@H](C)N(C)C(C)=O)nc4n3CC3CC3)c(C)n12` [Example 187, ~{N}-[(1~{R})-1-[2-[7-[(3~{R})-3-aminopiperidine-1-carbonyl]-5-methoxy-3-methylimidazo [1,2-a]pyridin-2-yl]-1-(cyclopropylmethyl)pyrrolo [2,3-b]pyridin-6-yl]ethyl]-~{N}-methylacetamide], the IC50 was 300 nM.
The value for `COc1cc(C(=O)N2C[C@H](N)[C@@H]3CC[C@H]2C3)cc2nc(-c3cc4ccc([C@@H](C)NC(=O)C56CC(F)(C5)C6)nc4n3CC3CC3)c(C)n12` [Example 189, N—((R)-1-(2-(7-((1S,4R,5R)-4-amino-2-azabicyclo[3.2.1]octane-2-carbonyl)-5-methoxy-3-methylimidazo[1,2-a]pyridin-2-yl)-1-(cyclopropylmethyl)-1H-pyrrolo[2,3-b]pyridin-6-yl)ethyl)-3-fluorobicyclo[1.1.1]pentane-1-carboxamide] was 67.3 nM; that for `COc1cc(C(=O)N2[C@H]3CC[C@@H]2[C@H](N)C3)cc2nc(-c3cc4ccc([C@H](NC(=O)C5(C#N)CC5)C(F)(F)F)nc4n3CC3CC3)c(C)n12` [Example 191, ~{N}-[(1~{S})-1-[2-[7-[(1~{R},2~{R},4~{S})-2-amino-7-azabicyclo[2.2.1]heptane-7-carbonyl]-5-methoxy-3-methylimidazo [1,2-a]pyridin-2-yl]-1-(cyclopropylmethyl)pyrrolo [2,3-b]pyridin-6-yl]-2,2,2-trifluoroethyl]-1-cyanocyclopropane-1-carboxamide] was 708 nM.
In the case of `COc1cc(C(=O)N2[C@H]3CC[C@@H]2[C@H](N)C3)cc2nc(-c3cc4ccc(C(NC(=O)C(C)(C)C)C(F)(F)F)nc4n3CC3CC3)c(C)n12` (some centres unmarked) [Example 192, ~{N}-[1-[2-[7-[(1~{R},2~{R},4~{S})-2-amino-7-azabicyclo[2.2.1]heptane-7-carbonyl]-5-methoxy-3-methylimidazo [1,2-a]pyridin-2-yl]-1-(cyclopropylmethyl)pyrrolo [2,3-b]pyridin-6-yl]-2,2,2-trifluoroethyl]-2,2-dimethylpropanamide] it was 689 nM.
In the case of `CCC(NC(C)=O)c1ccc2cc(-c3nc4cc(C(=O)N5CCC[C@@H](N)C5)cc(OC)n4c3C)n(CC3CC3)c2n1` (some centres unmarked) [Example 193, ~{N}-[1-[2-[7-[(3~{R})-3-aminopiperidine-1-carbonyl]-5-methoxy-3-methylimidazo [1,2-a]pyridin-2-yl]-1-(cyclopropylmethyl)pyrrolo [2,3-b]pyridin-6-yl]propyl]acetamide] it was 400 nM; in that of `COc1cc(C(=O)N2CCC[C@@H](N)C2)cc2nc(-c3cc4ccc(C(NC(C)=O)C5CC5)nc4n3CC3CC3)c(C)n12` (stereo partly drawn) [Example 194, N-((2-(7-((R)-3-aminopiperidine-1-carbonyl)-5-methoxy-3-methylimidazo[1,2-a]pyridin-2-yl)-1-(cyclopropylmethyl)-1H-pyrrolo[2,3-b]pyridin-6-yl)(cyclopropyl)methyl)acetamide], 1090 nM.
Take `COc1cc(C(=O)N2CCC[C@@H](N)C2)cc2nc(-c3cc4ccc(C(NC(C)=O)C(C)C)nc4n3CC3CC3)c(C)n12` (some centres unmarked) [Example 195, ~{N}-[1-[2-[7-[(3~{R})-3-aminopiperidine-1-carbonyl]-5-methoxy-3-methylimidazo [1,2-a]pyridin-2-yl]-1-(cyclopropylmethyl)pyrrolo [2,3-b]pyridin-6-yl]-2-methylpropyl]acetamide]: the IC50 was found to be 519 nM.
In the case of `COc1cc(C(=O)N2[C@H]3CC[C@@H]2[C@H](N)C3)cc2nc(-c3cc4ccc([C@@H](C)NC(=O)N5C[C@H]6OCC[C@H]65)nc4n3CC3CC3)c(C)n12` [Example 196, (1~{R},5~{R})-~{N}-[(1~{R})-1-[2-[7-[(1~{R},2~{R},4~{S})-2-amino-7-azabicyclo[2.2.1]heptane-7-carbonyl]-5-methoxy-3-methylimidazo [1,2-a]pyridin-2-yl]-1-(cyclopropylmethyl)pyrrolo [2,3-b]pyridin-6-yl]ethyl]-2-oxa-6-azabicyclo [3.2.0]heptane-6-carboxamide] it was 29.3 nM; in that of `COc1cc(C(=O)N2[C@H]3CC[C@@H]2[C@H](N)C3)cc2nc(-c3cc4ccc([C@@H](C)NC(=O)N5CC(O)(C(F)(F)F)C5)nc4n3CC3CC3)c(C)n12` [Example 197, ~{N}-[(1~{R})-1-[2-[7-[(1~{R},2~{R},4~{S})-2-amino-7-azabicyclo[2.2.1]heptane-7-carbonyl]-5-methoxy-3-methylimidazo [1,2-a]pyridin-2-yl]-1-(cyclopropylmethyl)pyrrolo [2,3-b]pyridin-6-yl]ethyl]-3-hydroxy-3-(trifluoromethyl)azetidine-1-carboxamide], 41.3 nM; in that of `COc1cc(C(=O)N2[C@H]3CC[C@@H]2[C@H](N)C3)cc2nc(-c3cc4ccc([C@@H](C)NC(=O)Nc5ccc(F)cc5F)nc4n3CC3CC3)c(C)n12` [Example 198, 1-[(1~{R})-1-[2-[7-[(1~{R},2~{R},4~{S})-2-amino-7-azabicyclo[2.2.1]heptane-7-carbonyl]-5-methoxy-3-methylimidazo [1,2-a]pyridin-2-yl]-1-(cyclopropylmethyl)pyrrolo [2,3-b]pyridin-6-yl]ethyl]-3-(2,4-difluorophenyl)urea], 185 nM.
